In this assay the target is T1, P2X7 receptor (Homo sapiens, UniProt Q99572).
T1 construct: host or cells: THP-1 cells differentiated with LPS and IFN-γ
T1 sequence (Q99572 1-595): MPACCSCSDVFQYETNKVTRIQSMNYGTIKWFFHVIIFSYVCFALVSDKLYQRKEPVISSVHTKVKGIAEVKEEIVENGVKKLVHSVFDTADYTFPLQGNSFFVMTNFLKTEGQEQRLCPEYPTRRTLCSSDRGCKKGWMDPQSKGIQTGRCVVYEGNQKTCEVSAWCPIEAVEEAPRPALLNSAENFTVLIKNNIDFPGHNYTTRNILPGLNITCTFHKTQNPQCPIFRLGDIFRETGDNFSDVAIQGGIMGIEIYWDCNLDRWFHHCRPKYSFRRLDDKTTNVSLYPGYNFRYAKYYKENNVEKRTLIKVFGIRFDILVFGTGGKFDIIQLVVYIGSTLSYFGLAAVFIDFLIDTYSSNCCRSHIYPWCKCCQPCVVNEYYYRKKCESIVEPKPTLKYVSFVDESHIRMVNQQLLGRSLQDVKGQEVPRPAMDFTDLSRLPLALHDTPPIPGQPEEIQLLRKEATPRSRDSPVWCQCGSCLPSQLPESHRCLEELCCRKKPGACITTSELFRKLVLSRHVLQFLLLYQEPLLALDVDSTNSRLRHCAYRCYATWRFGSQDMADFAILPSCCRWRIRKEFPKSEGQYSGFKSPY
The experiment in a line: IL-1β release assay in differentiated THP-1 cells stimulated with BzATP (Example 9). Particulars: for inhibition at 0.3 µM: 0.3 μM compound, read-out: IL-1β % Inhib. @ 0.3 μM; for inhibition at 0.3 µM / inhibition at 0.1 µM: differentiated THP-1 cells, BzATP 250 uM; for IC50: THP-1 cells, BzATP-stimulated IL-1β release, four parameter logistic fit; for inhibition: THP-1, read-out: IL-1β % Inhib.; for inhibition at 0.1 µM: 0.1 μM compound. Set-up: inhibition: dose or concentration left out as unconfirmed. The assay is classed as cell-based. In outline: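 THP-1 cells differentiated 16 h with LPS and IFN-γ (100 ng/mL each), re-primed 2 h with LPS, then compound-pretreated 30 min before 250 uM BzATP for 45 min. Supernatant IL-1β quantified by ELISA; background-adjusted percent inhibition fitted to four-parameter logistic for IC50.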

Where [1] appears, read: '*' class symbols, read-out: IL-1β % Inhib. (asterisk classes, 0.1 μM).

Read-outs that look alike come from different tables or passages of the source.

For orientation: IC50 means the concentration at which inhibition is half-maximal.

With `COc1cc(CC(=O)Nc2cccc3c(=O)n(CC(C)(C)C)ccc23)cc(OC)c1` [Compound 1266], the inhibition at 0.3 µM (symbols + to ++++) lay in the range of 0 to 25%. `CC(C(N)=O)n1ccc2c(NC(=O)C3COc4cc(C(C)(C)C)ccc4O3)cccc2c1=O` (stereo not shown) [Compound 1622]: the IC50 is above 1 µM. The inhibition at 0.3 µM ("+" class symbols) was 0 to 25%. As for `Cc1cccc(C(=O)Nc2cccc3c(=O)n(CC4CCOCC4)ccc23)c1C` [Compound 1086], the inhibition at 0.3 µM ('+' class symbols) lay in the range of 0 to 25%. As to `O=C(Cc1ccccc1F)Nc1cccc2c(=O)n(CCN3CCOCC3)ccc12` [Compound 1204], the inhibition at 0.3 µM (symbols + to ++++) lay in the range of 0 to 25%. Take `Cc1cccc(CCC(=O)Nc2cccc3c(=O)n(CC(C)(C)C)ccc23)c1` [Compound 1284]: where the note is “symbols + to ++++”, the inhibition at 0.3 µM lay in the range of 0 to 25%. Consider `CCOc1ccccc1CC(=O)Nc1cccc2c(=O)n(C)ccc12` [Compound 1307], for which the inhibition at 0.3 µM (symbols + to ++++) lay within 0 to 25%. Take `Cc1cc(C(=O)Nc2cccc3c(=O)n(CCN4CCOCC4)ccc23)ccc1F` [Compound 1231]: the inhibition at 0.3 µM (symbols + to ++++) was 0 to 25%. For `COCCn1ccc2c(NC(=O)CCc3ccccc3OC)cccc2c1=O` [Compound 1432], the inhibition fell in the range of 0 to 25%.

With `Cc1cccc(C(=O)Nc2cccc3c(=O)n(Cc4cccnc4)ccc23)c1Cl` [Compound 1370], the inhibition at 0.3 µM (symbols + to ++++) lay within 0 to 25%. For the compound `CN(C)CCn1ccc2c(NC(=O)CCc3ccccc3)cccc2c1=O` [Compound 1003], the IC50 was above 1 µM. Besides, for the setting “'+' class symbols”, the inhibition at 0.3 µM was in the range of 0 to 25%. `CC(=O)OCCn1ccc2c(NC(=O)Cc3ccc(C(F)(F)F)cc3C(F)(F)F)cccc2c1=O` [Compound 1617] gave an IC50 of 0.417 µM. Besides, for the setting “"+" class symbols”, the inhibition at 0.3 µM was in the range of 26 to 50%. On to `Cc1cccc(CCC(=O)Nc2cccc3c(=O)n(CCN(C)C)ccc23)c1` [Compound 1181], for which, where the note is “'+' class symbols”, the inhibition at 0.3 µM was 0 to 25%. For the compound `COCCn1ccc2c(NC(=O)c3cc(Cl)ccc3C)cccc2c1=O` [Compound 1441], the inhibition lay within 0 to 25%. `COc1cc(OC)cc(C(=O)Nc2cccc3c(=O)n(CCCN4CCCC4=O)ccc23)c1` [Compound 1512]: the inhibition was 0 to 25%.

Regarding `COc1ccc(C(=O)Nc2cccc3c(=O)n(CC(C)(C)C)ccc23)c(C)c1` [Compound 1405], the inhibition lay in the range of 0 to 25%. For the compound `Cc1ccc(CCC(=O)Nc2cccc3c(=O)n(CCN4CCOCC4)ccc23)c(C)c1` [Compound 1241], the inhibition at 0.3 µM (symbols + to ++++) is 0 to 25%.

For the compound `CCOc1ccc(C(=O)Nc2cccc3c(=O)n(Cc4ccc(OC(F)(F)F)cc4)ccc23)cc1` [Compound 1568], the inhibition is 0 to 25%.

With `COc1ccccc1CCC(=O)Nc1cccc2c(=O)n(CCN(C)C)ccc12` [Compound 1149], under setting [1], the inhibition at 0.1 µM was in the range of 0 to 25%. `CN(C)CCn1ccc2c(NC(=O)Cc3cccc4ccccc34)cccc2c1=O` [Compound 1152]: under “'+' class symbols”, the inhibition at 0.3 µM lay in the range of 0 to 25%. As for `COc1ccc(CC(=O)Nc2cccc3c(=O)n(CCN(C)C)ccc23)cc1OC` [Compound 1158], the inhibition at 0.3 µM ('+' class symbols) lay in the range of 0 to 25%. As for `Cc1ccc(Cl)c(C(=O)Nc2cccc3c(=O)n(CC4CCN(C)CC4)ccc23)c1` [Compound 1486], the inhibition fell in the range of 0 to 25%. Regarding `O=C(CCc1ccccc1Cl)Nc1cccc2c(=O)n(Cc3ccc(OC(F)(F)F)cc3)ccc12` [Compound 1557], the inhibition lay in the range of 0 to 25%. As for `Cc1ccc(Cl)c(C(=O)Nc2cccc3c(=O)n(CCN(C)C)ccc23)c1` [Compound 1179], for the setting “'+' class symbols”, the inhibition at 0.3 µM was in the range of 0 to 25%. As to `Cc1cccc(C(=O)Nc2cccc3c(=O)n(CC4CCN(C)CC4)ccc23)c1C` [Compound 1461], the inhibition fell in the range of 0 to 25%.

In the case of `CC1CCC(C(=O)Nc2cccc3c(=O)n(CC(C)(C)C)ccc23)CC1` (stereo not shown) [Compound 1047], the inhibition at 0.1 µM under setting [1] lay in the range of 0 to 25%.

Consider `O=C(Nc1cccc2c(=O)n(CCN3CCOCC3)ccc12)[C@@]12C[C@@H]3C[C@@H](C[C@@H]1C3)C2` [Compound 1223], for which the inhibition at 0.3 µM (symbols + to ++++) is 0 to 25%.

Regarding `O=C(Nc1cccc2c(=O)n(CCCN3CCCC3=O)ccc12)c1ccc(-c2ccccc2)o1` [Compound 1496], the inhibition fell in the range of 0 to 25%. Regarding `O=C(CCc1ccccc1Cl)Nc1cccc2c(=O)n(Cc3cccnc3)ccc12` [Compound 1079], the inhibition at 0.3 µM ('+' class symbols) was 0 to 25%.

As to `O=C(Cc1csc2ccccc12)Nc1cccc2c(=O)n(CCN3CCOCC3)ccc12` [Compound 1226], under “symbols + to ++++”, the inhibition at 0.3 µM was 0 to 25%.

As to `O=C(Cc1ccc2c(c1)OCO2)Nc1cccc2c(=O)n(CC3CCOCC3)ccc12` [Compound 1110], the inhibition at 0.3 µM ('+' class symbols) is 0 to 25%.

Turning to `COc1ccccc1CCC(=O)Nc1cccc2c(=O)n(CCN3CCOCC3)ccc12` [Compound 1201], the inhibition at 0.1 µM (symbols * to ****, read-out: IL-1β % Inhib. (asterisk symbols: at 0.1 μM)) is 0 to 25%.

On to `COCCn1ccc2c(NC(=O)c3cccc4ccccc34)cccc2c1=O` [Compound 1312], for which, under “symbols + to ++++”, the inhibition at 0.3 µM fell in the range of 0 to 25%. As for `CN(C)CCn1ccc2c(NC(=O)c3ccc4ccccc4c3)cccc2c1=O` [Compound 1153], the inhibition at 0.3 µM ('+' class symbols) lay within 0 to 25%. For `COc1ccc(CC(=O)Nc2cccc3c(=O)n(Cc4ccc(OC(F)(F)F)cc4)ccc23)c(OC)c1` [Compound 1601], where the note is “"*" class symbols, read-out: IL-1β % Inhib. ("*" symbols: at 0.1 μM)”, the inhibition at 0.1 µM was in the range of 0 to 25%.

With `Cc1cccc(CC(=O)Nc2cccc3c(=O)n(CCCN4CCCC4=O)ccc23)c1` [Compound 1521], the inhibition was in the range of 0 to 25%.

As for `CCOc1ccc(C(=O)Nc2cccc3c(=O)n(CCN4CCOCC4)ccc23)c(O)c1` [Compound 1403], the inhibition was 0 to 25%. Take `COc1ccccc1CC(=O)Nc1cccc2c(=O)n(CCN(C)C)ccc12` [Compound 1409]: the inhibition was in the range of 0 to 25%.

For `O=C(Nc1cccc2c(=O)n(Cc3ccc(OC(F)(F)F)cc3)ccc12)c1ccc(-c2ccccc2)o1` [Compound 1551], the inhibition is 0 to 25%.

On to `COc1cccc(CCC(=O)Nc2cccc3c(=O)n(Cc4ccc(OC(F)(F)F)cc4)ccc23)c1` [Compound 1552], for which the inhibition fell in the range of 0 to 25%. As to `Cc1ccc(Cl)c(C(=O)Nc2cccc3c(=O)n(CC4CCOCC4)ccc23)c1` [Compound 1128], the inhibition at 0.3 µM ('+' class symbols) is 0 to 25%. Consider `COCCn1ccc2c(NC(=O)Cc3ccccc3OC)cccc2c1=O` [Compound 1437], for which the inhibition lay within 0 to 25%. Consider `Cc1cccc(C(=O)Nc2cccc3c(=O)n(Cc4ccc(OC(F)(F)F)cc4)ccc23)c1C` [Compound 1563], for which the inhibition lay in the range of 0 to 25%. Take `COc1ccc(CC(=O)Nc2cccc3c(=O)n(CCCN4CCCC4=O)ccc23)cc1OC` [Compound 1520]: the inhibition fell in the range of 0 to 25%. On to `Cc1ccccc1C(=O)Nc1cccc2c(=O)n(C)ccc12` [Compound 1419], for which the inhibition fell in the range of 0 to 25%. On the same count and under the same terms, with `Cc1c(Cl)cccc1C(=O)Nc1cccc2c(=O)n(CC3CCN(C)CC3)ccc12` [Compound 1481] the figure was 0 to 25%. `COc1ccc(CC(=O)Nc2cccc3c(=O)n(Cc4cccnc4)ccc23)cc1OC` [Compound 1354]: where the note is “symbols + to ++++”, the inhibition at 0.3 µM fell in the range of 0 to 25%.

`CC1(C)CCCC(O)(CC(=O)Nc2cccc3c(=O)n(CCS(C)(=O)=O)ccc23)C1` (stereo not shown) [Compound 1629] came in with an IC50 of 0.457 µM. Also, the inhibition at 0.3 µM ("+" class symbols) is 26 to 50%.

Compound `O=C(Cc1cccc(C(F)(F)F)c1F)Nc1cccc2c(=O)n(Cc3ccc(C(F)(F)F)nc3)ccc12` [Compound 1626] displayed an IC50 above 1 µM. Besides, where the note is “"+" class symbols”, the inhibition at 0.3 µM lay within 0 to 25%. As to `COCCn1ccc2c(NC(=O)C(C)c3ccccc3)cccc2c1=O` (stereo not shown) [Compound 1431], the inhibition fell in the range of 0 to 25%. As for `CC(C)Cc1ccc(C(=O)Nc2cccc3c(=O)n(Cc4cccnc4)ccc23)cc1` [Compound 1372], the inhibition at 0.3 µM (symbols + to ++++) was 0 to 25%.

In the case of `COCCn1ccc2c(NC(=O)c3ccc(OC)c(Cl)c3)cccc2c1=O` [Compound 1067], the inhibition at 0.3 µM ('+' class symbols) fell in the range of 26 to 50%. Turning to `COCCn1ccc2c(NC(=O)CCc3ccccc3C)cccc2c1=O` [Compound 1062], under setting [1], the inhibition at 0.1 µM fell in the range of 26 to 50%. For `Cc1cccc(C(=O)Nc2cccc3c(=O)n(CC4CCOCC4)ccc23)c1Cl` [Compound 1132], the inhibition at 0.3 µM ('+' class symbols) lay in the range of 0 to 25%. In turn, `COCCn1ccc2c(NC(=O)Cc3ccc(Cl)c(Cl)c3)cccc2c1=O` [Compound 1392] registered an IC50 of 0.123 µM. The inhibition at 0.3 µM (symbols + to ++++) lay within 51 to 75%. The compound `CN(C)CCn1ccc2c(NC(=O)C(Cl)c3ccccc3)cccc2c1=O` (stereo not shown) [Compound 1017] displayed an IC50 of 0.367 µM. For the setting “'+' class symbols”, the inhibition at 0.3 µM was in the range of 26 to 50%. As for `O=C(Cc1ccc2c(c1)OCO2)Nc1cccc2c(=O)n(CCN3CCOCC3)ccc12` [Compound 1217], the inhibition at 0.3 µM (symbols + to ++++) lay in the range of 0 to 25%. For `COCCn1ccc2c(NC(=O)CCCc3ccccc3)cccc2c1=O` [Compound 1319], the inhibition at 0.3 µM (symbols + to ++++) was in the range of 0 to 25%.

The record behind these values is patent US8546579B2, “Bicycloheteroaryl compounds as P2X7 modulators and uses thereof” (Evotec (US) Inc., priority 2006, dated 2013).
